Data from US6528484B1, “Insecticidal protein toxins from Photorhabdus” (priority 1993, dated 2003).
Like-named read-outs stand apart in the source and are kept apart here. Where a SMILES comes first, the peptide text is derived from it. [ ]: non-standard residue; d: D form. The star is where a group is joined. Sta = CC(C)C[C@H](N)[C@@H](O)CC(=O)O; Isovaleryl = CC(C)CC(=O)*

Legend:
[1] = test system: protease(s) found in the Photorhabdus broth; format: biochemical, Photorhabdus luminescens; settings: for Corrected Flu. Units (Fluorescence Units - background) / Percent Inhibition relative to protease activity at pH 8.0: pH 8
Experimental: Protease Inhibition and Classification Assays: Protease assays were performed using FITC-casein dissolved in water as substrate (0.08% final assay concentration). Proteolysis reactions were performed at 25° C. for 1 h in the appropriate buffer with 25 μl of Photorhabdus broth (150 μl total reaction volume). Samples were also assayed in the presence and absence of dithiothreitol. After incubation, an equal volume of 12% trichloroacetic acid was added to precipitate undigested protein. Following precipitation for 0.5 h and subsequent centrifugation, 100 μl of the supernatant was placed into a 96-well microtiter plate and the pH of the solution was adjusted by addition of an equal volume of 4N NaOH. Proteolysis was then quantitated using a Fluoroskan II fluorometric plate reader at excitation and emission wavelengths of 485 and 538 nm, respectively. Protease activity was tested over a range from pH 5.0-10.0 in 0.5 units increments. The following buffers were used at 50 mM final concentration: sodium acetate (pH 5.0-6.5); Tris-HCL (pH 7.0-8.0); and bis-Tris propane (pH 8.5-10.0). […] The protease inhibitors used included E-64 (L-trans-expoxysaccinylleucylamido[4-,-guanidino]-butane), 3,4 dichloroisocoumarin, Leupeptin, pepstatin, amastatin, ethylenediaminetetraacetic acid (EDTA) and 1,10 phenanthroline.

41/38 kDa protease = assay: Inhibition of purified 41/38 kDa protease; format: biochemical, Photorhabdus luminescens
Experimental: (§1) Activity assays of the different proteases in W-14 day three culture broth were performed using FITC-casein dissolved in water as substrate (0.02% final assay concentration). Proteolysis experiments were performed at 37° C. for 0-0.5 h in 0.1M Tris-HCl (pH 8.0) with different protein fractions in a total volume of 0.15 ml. Reactions were terminated by addition of an equal volume of 12% trichloroacetic acid (TCA) dissolved in water. After incubation at room temperature for 0.25 h, samples were centrifuged at […] for 0.25 h and 0.10 ml aliquots were removed and placed into 96-well microtiter plates. The solution was then neutralized by the addition of an equal volume of 2 N sodium hydroxide, followed by quantitation using a Fluoroskan II fluorometric plate reader with excitation and emission wavelengths of 485 and 538 nm, respectively. Activity measurements were performed using FITC-Casein with different protease concentrations at 37° C. for 0-10 min. A unit of activity was arbitrarily defined as the amount of enzyme needed to produce 1000 fluorescent units/min and specific activity was defined as units/mg of protease.
(§2) Inhibition studies were performed using two zinc-metalloprotease inhibitors; 1,10 phenanthroline and N-(a-rhamnopyranosyloxyhydroxyphosphinyl)-Leu-Trp(phosphoramidon) with stock solutions of the inhibitors dissolved in 100% ethanol and water, respectively. […]

58 kDa protease = assay: Inhibition of purified 58 kDa protease; format: biochemical, Photorhabdus luminescens
Experimental: as §1, §2

[2] = test system: protease activity of three day W-14 crude broth; assay: FITC-casein protease assay, three day W-14 crude broth; format: biochemical, Photorhabdus luminescens; settings: inhibitor 0.5-1.0 mg/ml per reaction
Experimental: as §1, §2

[3] = test system: neonate Diabrotica undecimpunctata howardi (Southern corn rootworm, SCR); assay: SCR bioassay on artificial diet (Example 13; used in Examples 14-16); format: in vivo
[4] = inhibitor 0.5 μg/μl final concentration, Day 1 production broth

For `O[C@H](CS)[C@H](O)CS` (racemic) [DTT, dithiothreitol], the “effect on protease activity” value ([1]; samples assayed in presence and absence of dithiothreitol) was “did not have any effect”.

For `CC(C)C[C@H](NC(=O)[C@H]1O[C@@H]1C(=O)O)C(=O)NCCCCN=C(N)N` (relative stereo) [Strain E-64, L-trans-expoxysaccinylleucylamido[4-,-guanidino]-butane], the “Corrected Flu. Units (Fluorescence Units - background)” value (“Corrected Flu. Units” for short) [1] was 14259 Fluorescence Units and the “Percent Inhibition relative to protease activity at pH 8.0” value [1] was 0%.

For `c1cnc2c(c1)ccc1cccnc12` [1,10 Phenanthroline, 1,10 phenanthroline], the “inhibition of purified 41/38 kDa protease” value (41/38 kDa protease) was “completely inhibited”, the “inhibition of purified 58 kDa protease” value (58 kDa protease) was “completely inhibited” and the “inhibition of all protease activity of crude broth” value ([1]; final concentration of 50 μg) was “complete inhibition”. For the same compound, the IC50 ([1]; in 100 μl of a 2 mg/ml crude broth solution) was 5 µg, the “Corrected Flu. Units” value [1, 4] was 15 Fluorescence Units and the “Percent Inhibition relative to protease activity at pH 8.0” value [1, 4] was 99%. The “effect on protease activity of three day W-14 crude broth” value [2] was “complete elimination of all protease activity”.

For `O=c1oc(Cl)c(Cl)c2ccccc12` [3,4 Dichloroisocoumarin, 3,4 dichloroisocoumarin], the “Corrected Flu. Units” value [1, 4] was 7956 Fluorescence Units and the “Percent Inhibition relative to protease activity at pH 8.0” value [1, 4] was 39%.

In the case of `CC(C)C[C@@H](N)[C@H](O)C(=O)N[C@H](C(=O)N[C@H](C(=O)N[C@@H](CC(=O)O)C(=O)O)C(C)C)C(C)C` [Amastatin, amastatin], the “Corrected Flu. Units” value [1, 4] is reported as 12474 Fluorescence Units and the “Percent Inhibition relative to protease activity at pH 8.0” value [1, 4] is reported as 4%.

With `CC(=O)N[C@@H](CC(C)C)C(=O)N[C@@H](CC(C)C)C(=O)N[C@H](C=O)CCCNC(=N)N` [Leupeptin] the “Corrected Flu. Units” value [1, 4] was 13074 Fluorescence Units and the “Percent Inhibition relative to protease activity at pH 8.0” value [1, 4] was 0%.

With `CC(C)CC(=O)N[C@H](C(=O)N[C@H](C(=O)N[C@@H](CC(C)C)[C@@H](O)CC(=O)N[C@@H](C)C(=O)N[C@@H](CC(C)C)[C@@H](O)CC(=O)O)C(C)C)C(C)C` [Pepstatin, pepstatin] (Isovaleryl-VV[Sta]A[Sta]-OH) the “Corrected Flu. Units” value [1, 4] was 13441 Fluorescence Units and the “Percent Inhibition relative to protease activity at pH 8.0” value [1, 4] was 0%.

`CC(C)C[C@H](NP(=O)(O)O[C@@H]1O[C@@H](C)[C@H](O)[C@@H](O)[C@H]1O)C(=O)N[C@@H](Cc1c[nH]c2ccccc12)C(=O)O` [phosphoramidon, N-(a-rhamnopyranosyloxyhydroxyphosphinyl)-Leu-Trp] was tested, and the “inhibition of purified 41/38 kDa protease” value (41/38 kDa protease) was “inhibited”, the “inhibition of purified 58 kDa protease” value (58 kDa protease) was “insensitive” and the “reduction of protease activity of three day W-14 crude broth” value ([2]; not further reduced with additional inhibitor) was “about 56%”.

In the case of “TcbA: peptide TcbA, SEQ ID NO:12; in Table 24 bioassay lines the TcbA-enriched toxin B complex fraction of W-14 broth”, the “SCR Weight (mg/insect), average weight of live insect after 5 days on diet” value ([3]; 38 kDa protease treatment) is reported as 0.1 mg/insect, the “LD50 (μg protein)” value ([3]; 38 kDa protease treatment, 37° C., 90 min) is reported as 0.52 μg protein and the “LD50 (μg protein)” value ([3]; Control (protease omitted)) is reported as 2.1 μg protein. For the same compound, the “SCR Weight (mg/insect), average weight of live insect after 5 days on diet” value ([3]; Control (protease omitted)) was 0.2 mg/insect and the “fold increase of SCR insecticidal activity by 38 kDa protease treatment” value ([3]; comparison of activity in several dilutions) was 3 to 4 fold.

In the case of “toxin A: 860 kDa complex purified from activity peak A; major peptides TcdAii and TcdAiii”, the “activity against Southern corn root worm” value ([3]; in vivo) is reported as “active”.

“toxin B: 860 kDa complex purified from activity peak B; major peptides TcbAii and TcbAiii (or intact TcbA)” was tested, and the “LD50 against SCR after SCR gut content treatment” value ([3]; 40 μg toxin with 50 μl SCR gut content, 37° C. overnight) was “about 70 ng”, the “fold increase of SCR activity by SCR gut content treatment” value ([3]; LD50 treated against untreated) was 10 fold and the “LD50 against SCR” value ([3]; in vivo) was “around 700 ng”. For the same compound, the “activity against Southern corn root worm” value ([3]; in vivo) was “active” and the “toxin activity after protease K treatment” value ([3]; separate experiment) was “completely eliminated toxin activity”.
